In patent US11541107B2, “Peptides and T cells for use in immunotherapeutic treatment of various cancers” (Immatics Biotechnologies GmbH, priority 2015, dated 2023):

Test system: HLA-A*24
Assay: MHC binding assay, UV-ligand exchange with beta2m ELISA, HLA-A*24
Design: species or system human
Details: binding to HLA-A*24 ranged by peptide exchange yield (UV-ligand exchange, beta2m ELISA)
Description: Candidate peptides for T cell based therapies according to the present invention were further tested for their MHC binding capacity (affinity). The individual peptide-MHC complexes were produced by UV-ligand exchange, where a UV-sensitive peptide is cleaved upon UV-irradiation, and exchanged with the peptide of interest as analyzed. Only peptide candidates that can effectively bind and stabilize the peptide-receptive MHC molecules prevent dissociation of the MHC complexes. To determine the yield of the exchange reaction, an ELISA was performed based on the detection of the light chain (ß2 m) of stabilized MHC complexes. The assay was performed as generally described in Rodenko et al. (Rodenko et al., 2006).
96 well MAXISorp plates (NUNC) were coated over night with 2 ug/ml streptavidin in PBS at room temperature, washed 4× and blocked for 1 h at 37° C. in 2% BSA containing blocking buffer. […] Peptide-MHC monomers of the UV-exchange reaction were diluted 100 fold in blocking buffer. Samples were incubated for 1 h at 37° C., washed four times, incubated with 2 ug/ml HRP conjugated anti-β2 m for 1h at 37° C., washed again and detected with TMB solution that is stopped with […]. Absorption was measured at 450 nm. Candidate peptides that show a high exchange yield (preferably higher than 50%, most preferred higher than 75%) are generally preferred for a generation and production of antibodies or fragments thereof, and/or T cell receptors or fragments thereof, as they show sufficient avidity to the MHC molecules and prevent dissociation of the MHC complexes.

In the case of “239 (VYAIFRILL; listed as Homo sapiens) [compound 239]”, the Peptide exchange is reported as “+++ (50%-75% = +++)”.
With “240 (YYFFVQEKI; listed as Homo sapiens) [compound 240]” the Peptide exchange was “+++ (50%-75% = +++)”.
In the case of “241 (SYVKVLHHL; listed as Homo sapiens) [compound 241]”, the Peptide exchange is reported as “+++ (50%-75% = +++)”.
In the case of “242 (VYGEPRELL; listed as Homo sapiens) [compound 242]”, the Peptide exchange is reported as “+++ (50%-75% = +++)”.
For “243 (SYLELANTL; listed as Homo sapiens) [compound 243]”, the Peptide exchange was “+++ (50%-75% = +++)”.
With “244 (VHFEDTGKTLLF; listed as Homo sapiens) [compound 244]” the Peptide exchange was “+++ (50%-75% = +++)”.
With “245 (LYPQLFVVL; listed as Homo sapiens) [compound 245]” the Peptide exchange was “+++ (50%-75% = +++)”.
For “246 (KYLSVQLTL; listed as Homo sapiens) [compound 246]”, the Peptide exchange was “++ (20%-49% = ++)”.
In the case of “247 (SFTKTSPNF; listed as Homo sapiens) [compound 247]”, the Peptide exchange is reported as “+++ (50%-75% = +++)”.
With “248 (AFPTFSVQL; listed as Homo sapiens) [compound 248]” the Peptide exchange was “++++ (>=75% = ++++)”.
“249 (RYHPTTCTI; listed as Homo sapiens) [compound 249]” was tested, and the Peptide exchange was “++++ (>=75% = ++++)”.
In the case of “250 (KYPDIASPTF; listed as Homo sapiens) [compound 250]”, the Peptide exchange is reported as “++ (20%-49% = ++)”.
In the case of “251 (VYTKALSSL; listed as Homo sapiens) [compound 251]”, the Peptide exchange is reported as “+++ (50%-75% = +++)”.
For “252 (AFGQETNVPLNNF; listed as Homo sapiens) [compound 252]”, the Peptide exchange was “++++ (>=75% = ++++)”.
In the case of “253 (IYGFFNENF; listed as Homo sapiens) [compound 253]”, the Peptide exchange is reported as “+++ (50%-75% = +++)”.
In the case of “254 (KYLESSATF; listed as Homo sapiens) [compound 254]”, the Peptide exchange is reported as “+++ (50%-75% = +++)”.
In the case of “255 (VYQKIILKF; listed as Homo sapiens) [compound 255]”, the Peptide exchange is reported as “+++ (50%-75% = +++)”.
With “256 (VFGKSAYLF; listed as Homo sapiens) [compound 256]” the Peptide exchange was “+++ (50%-75% = +++)”.
In the case of “257 (IFIDNSTQPLHF; listed as Homo sapiens) [compound 257]”, the Peptide exchange is reported as “+++ (50%-75% = +++)”.
For “258 (AYAQLGYLL; listed as Homo sapiens) [compound 258]”, the Peptide exchange was “+++ (50%-75% = +++)”.
For “259 (YFIKSPPSQLF; listed as Homo sapiens) [compound 259]”, the Peptide exchange was “++ (20%-49% = ++)”.
In the case of “260 (VYMNVMTRL; listed as Homo sapiens) [compound 260]”, the Peptide exchange is reported as “++++ (>=75% = ++++)”.
“261 (GYIKLINFI; listed as Homo sapiens) [compound 261]” was tested, and the Peptide exchange was “++++ (>=75% = ++++)”.
With “262 (VYSSQFETI; listed as Homo sapiens) [compound 262]” the Peptide exchange was “++++ (>=75% = ++++)”.
For “263 (RYILENHDF; listed as Homo sapiens) [compound 263]”, the Peptide exchange was “+++ (50%-75% = +++)”.
“264 (LYTETRLQF; listed as Homo sapiens) [compound 264]” was tested, and the Peptide exchange was “++++ (>=75% = ++++)”.
“265 (SYLNEAFSF; listed as Homo sapiens) [compound 265]” was tested, and the Peptide exchange was “++++ (>=75% = ++++)”.
“266 (KYTDWTEFL; listed as Homo sapiens) [compound 266]” was tested, and the Peptide exchange was “+++ (50%-75% = +++)”.
For “267 (SFLNIEKTEILF; listed as Homo sapiens) [compound 267]”, the Peptide exchange was “++ (20%-49% = ++)”.
With “268 (IFITKALQI; listed as Homo sapiens) [compound 268]” the Peptide exchange was “++ (20%-49% = ++)”.
With “269 (QYPYLQAFF; listed as Homo sapiens) [compound 269]” the Peptide exchange was “+++ (50%-75% = +++)”.
For “270 (YYSQESKVLYL; listed as Homo sapiens) [compound 270]”, the Peptide exchange was “+++ (50%-75% = +++)”.
With “271 (RFLMKSYSF; listed as Homo sapiens) [compound 271]” the Peptide exchange was “++++ (>=75% = ++++)”.
In the case of “272 (RYVFPLPYL; listed as Homo sapiens) [compound 272]”, the Peptide exchange is reported as “++++ (>=75% = ++++)”.
With “273 (IYGEKLQFIF; listed as Homo sapiens) [compound 273]” the Peptide exchange was “+++ (50%-75% = +++)”.
With “274 (KQLDIANYELF; listed as Homo sapiens) [compound 274]” the Peptide exchange was “++++ (>=75% = ++++)”.
In the case of “275 (KYGTLDVTF; listed as Homo sapiens) [compound 275]”, the Peptide exchange is reported as “++++ (>=75% = ++++)”.
With “276 (QYLDVLHAL; listed as Homo sapiens) [compound 276]” the Peptide exchange was “++++ (>=75% = ++++)”.
With “277 (FYTFPFQQL; listed as Homo sapiens) [compound 277]” the Peptide exchange was “+++ (50%-75% = +++)”.
With “279 (VWLPASVLF; listed as Homo sapiens) [compound 279]” the Peptide exchange was “+++ (50%-75% = +++)”.
“280 (TYNPNLQDKL; listed as Homo sapiens) [compound 280]” was tested, and the Peptide exchange was “++++ (>=75% = ++++)”.
With “281 (NYSPGLVSLIL; listed as Homo sapiens) [compound 281]” the Peptide exchange was “+++ (50%-75% = +++)”.
With “282 (NYLVDPVTI; listed as Homo sapiens) [compound 282]” the Peptide exchange was “+++ (50%-75% = +++)”.
In the case of “283 (EYQEIFQQL; listed as Homo sapiens) [compound 283]”, the Peptide exchange is reported as “+++ (50%-75% = +++)”.
In the case of “284 (DYLKDPVTI; listed as Homo sapiens) [compound 284]”, the Peptide exchange is reported as “+++ (50%-75% = +++)”.
In the case of “285 (VYVGDALLHAI; listed as Homo sapiens) [compound 285]”, the Peptide exchange is reported as “+++ (50%-75% = +++)”.
For “286 (SYGTILSHI; listed as Homo sapiens) [compound 286]”, the Peptide exchange was “++++ (>=75% = ++++)”.
“287 (IYNPNLLTASKF; listed as Homo sapiens) [compound 287]” was tested, and the Peptide exchange was “+++ (50%-75% = +++)”.
“288 (VYPDTVALTF; listed as Homo sapiens) [compound 288]” was tested, and the Peptide exchange was “++ (20%-49% = ++)”.
For “289 (FFHEGQYVF; listed as Homo sapiens) [compound 289]”, the Peptide exchange was “++++ (>=75% = ++++)”.
“290 (KYGDFKLLEF; listed as Homo sapiens) [compound 290]” was tested, and the Peptide exchange was “++++ (>=75% = ++++)”.
“291 (YYLGSGRETF; listed as Homo sapiens) [compound 291]” was tested, and the Peptide exchange was “+++ (50%-75% = +++)”.
For “292 (FYPQIINTF; listed as Homo sapiens) [compound 292]”, the Peptide exchange was “++++ (>=75% = ++++)”.
With “293 (VYPHFSTTNLI; listed as Homo sapiens) [compound 293]” the Peptide exchange was “++++ (>=75% = ++++)”.
With “294 (RFPVQGTVTF; listed as Homo sapiens) [compound 294]” the Peptide exchange was “+++ (50%-75% = +++)”.
For “295 (SYLVIHERI; listed as Homo sapiens) [compound 295]”, the Peptide exchange was “+++ (50%-75% = +++)”.
“296 (SYQVIFQHF; listed as Homo sapiens) [compound 296]” was tested, and the Peptide exchange was “++++ (>=75% = ++++)”.
With “297 (TYIDTRTVF; listed as Homo sapiens) [compound 297]” the Peptide exchange was “++++ (>=75% = ++++)”.
“298 (AYKSEVVYF; listed as Homo sapiens) [compound 298]” was tested, and the Peptide exchange was “++++ (>=75% = ++++)”.
With “299 (KYQYVLNEF; listed as Homo sapiens) [compound 299]” the Peptide exchange was “+++ (50%-75% = +++)”.
With “300 (TYPSQLPSL; listed as Homo sapiens) [compound 300]” the Peptide exchange was “+++ (50%-75% = +++)”.
For “301 (KFDDVTMLF; listed as Homo sapiens) [compound 301]”, the Peptide exchange was “++++ (>=75% = ++++)”.
With “302 (LYLPVHYGF; listed as Homo sapiens) [compound 302]” the Peptide exchange was “+++ (50%-75% = +++)”.
With “303 (LYSVIKEDF; listed as Homo sapiens) [compound 303]” the Peptide exchange was “+++ (50%-75% = +++)”.
With “304 (EYNEVANLF; listed as Homo sapiens) [compound 304]” the Peptide exchange was “+++ (50%-75% = +++)”.
With “305 (NYENKQYLF; listed as Homo sapiens) [compound 305]” the Peptide exchange was “++++ (>=75% = ++++)”.
“306 (VYPAEQPQI; listed as Homo sapiens) [compound 306]” was tested, and the Peptide exchange was “+++ (50%-75% = +++)”.
“307 (GYAFTLPLF; listed as Homo sapiens) [compound 307]” was tested, and the Peptide exchange was “+++ (50%-75% = +++)”.
“308 (TFDGHGVFF; listed as Homo sapiens) [compound 308]” was tested, and the Peptide exchange was “+++ (50%-75% = +++)”.
With “309 (KYYRQTLLF; listed as Homo sapiens) [compound 309]” the Peptide exchange was “++ (20%-49% = ++)”.
“310 (IYAPTLLVF; listed as Homo sapiens) [compound 310]” was tested, and the Peptide exchange was “+++ (50%-75% = +++)”.
With “311 (EYLQNLNHI; listed as Homo sapiens) [compound 311]” the Peptide exchange was “++++ (>=75% = ++++)”.
For “312 (SYTSVLSRL; listed as Homo sapiens) [compound 312]”, the Peptide exchange was “+++ (50%-75% = +++)”.
